Source: patent US8754051B2, “Peptide modulators of the δPKC interaction with the d subunit of F1Fo ATP synthase/ATPase and uses thereof” (Georgia Regents Research Institute, Inc., priority 2009, dated 2014)
Peptide text beside a SMILES is read from it.

Legend:
δPKC binding to dF1Fo = target: T1, δPKC binding to dF1Fo (Rattus norvegicus, UniProt P09215); assay: PKC overlay binding assay; conditions: overlay with purified PKC isozymes, DG/PS; read-out: IC50 for modulation of δPKC-dF1Fo binding
T1 construct: with purified rat brain PKC (mixture of PKC isozymes); from tissue; host or cells: PKC from rat brain; F1Fo ATPase holo-enzyme from adult rat cardiac ventricle
T1 sequence (P09215 whole entry): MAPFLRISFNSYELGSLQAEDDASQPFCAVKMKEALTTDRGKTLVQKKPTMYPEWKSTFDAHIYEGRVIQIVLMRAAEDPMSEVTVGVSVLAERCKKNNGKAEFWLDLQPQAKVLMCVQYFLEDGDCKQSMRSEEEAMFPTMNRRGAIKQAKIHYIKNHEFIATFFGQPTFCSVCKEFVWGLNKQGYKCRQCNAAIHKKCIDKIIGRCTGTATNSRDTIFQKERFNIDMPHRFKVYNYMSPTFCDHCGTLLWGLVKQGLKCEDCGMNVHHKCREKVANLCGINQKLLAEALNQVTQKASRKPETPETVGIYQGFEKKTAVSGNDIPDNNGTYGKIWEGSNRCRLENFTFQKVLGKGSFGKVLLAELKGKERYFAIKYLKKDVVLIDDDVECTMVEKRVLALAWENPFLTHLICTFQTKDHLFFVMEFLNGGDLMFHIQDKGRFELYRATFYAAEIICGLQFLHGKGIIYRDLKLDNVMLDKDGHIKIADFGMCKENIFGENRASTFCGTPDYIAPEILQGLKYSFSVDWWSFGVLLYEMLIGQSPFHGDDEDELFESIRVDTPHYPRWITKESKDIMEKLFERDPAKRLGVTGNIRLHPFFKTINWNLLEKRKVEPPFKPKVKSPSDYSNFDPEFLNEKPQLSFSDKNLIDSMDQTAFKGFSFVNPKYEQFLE

δPKC-dF1Fo co-IP = target: T2, δPKC-dF1Fo co-IP (Rattus norvegicus, UniProt P09215); assay: δPKC co-immunoprecipitation with dF1Fo in NCM mitochondria after phorbol ester; assay type: cell-based; conditions: 100 nM 4-β PMA, 20 min, NCMs
T2 construct: endogenous in cells; host or cells: neonatal rat cardiac myocytes (NCMs), isolated mitochondria
T2 sequence (P09215 whole entry): as above
T2 sequence (P31399 2-161 partner limits assumed): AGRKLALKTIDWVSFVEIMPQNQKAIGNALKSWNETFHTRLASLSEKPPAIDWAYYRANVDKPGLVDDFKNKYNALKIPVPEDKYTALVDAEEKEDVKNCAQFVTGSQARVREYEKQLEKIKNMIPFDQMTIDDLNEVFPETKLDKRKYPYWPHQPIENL
Protocol: FIGS. 1A-1B: Delta protein kinase C (δPKC) co-immunoprecipitates (co-IPs) with the “d” subunit of F1Fo ATP synthase (dF1Fo) following 100 nM 4-β PMA treatment. Neonatal cardiac myocytes (NCMs) were treated with 100 nM 4-α PMA (0 nM in Figure), 3 nM 4-β PMA for 1 hr. or 100 nM 4-β PMA for 20 min. Mitochondria were isolated using Percoll/Optiprep density gradients and then subjected to immunoprecipitations using antisera to dF1Fo. IPs were resolved by […] and transferred onto nitrocellulose paper (NCP) followed by Western blot analyses using antisera against αPKC, δPKC, εPKC and ζPKC. FIG. 1A, representative autoradiographs for each PKC isozyme are shown. FIG. 1B, mean±S.E. densitometry values for three independent myocyte preparations. Asterisks indicate significant differences between 4-α PMA and 3 nM or 100 nM 4-β PMA (p<0.05). # indicates statistically significant differences between 3 and 100 nM 4-β PMA (p<0.05).
Phorbol esters such as 4-β phorbol 12-myristate-13-acetate (4-β PMA), are well known activators of most PKC isozymes and should be useful in determining if one or more PKC isozymes induced effects on the F1Fo complex. […] In FIG. 1, 4-α PMA is shown as “0” concentration and […] values are reported for 3-100 nM concentrations. IPs were next subjected to Western blot analyses with anti-PKC isozyme-selective antisera. […]

[1] = test system: isolated rat hearts, ischemia/reperfusion injury; assay: Infarct size (TTC staining) after ischemia/reperfusion in isolated rat hearts
Protocol: Hearts were excised from 2 month-old Sprague-Dawley rats and subjected to Langendorff-mode perfusion with oxygenated Kreb's buffer. Following a 20 min equilibration to attain stable beating hearts either were perfused continuously for 110 minutes (Con) or were subjected to 20 minutes of global no-flow ischemia and then 90 minutes of oxygenated reperfusion (IR). For groups receiving the δPKC-dF1Fo inhibitor or facilitator peptides (complete amino acid sequences shown in FIG. 13) 20 nM concentrations of the peptides were given at the onset of the 90 minute reperfusion period for 20 minutes. At the termination of experimentation atria were removed and ventricles were rapidly washed in chilled Kreb's buffer and partially frozen to facilitate cutting the hearts into sections. […]
Histograms represent mean±S.E. infarction expressed as a percentage of the entire left ventricular area. […]
The effects of the peptides of the present invention on infarct size following IR injury in the Langendorff model was assessed, Hearts were perfused in the absence of peptide, under normoxic conditions for 110 minutes (Con), or were given a 20 minute global, no flow, ischemia exposure followed by normoxic perfusion for 90 minutes. δPKC-dF1Fo modulatory peptides (20 nM) were administered at the onset of reperfusion for 20 minutes. […]

[2] = test system: mitochondrial δPKC levels; assay: Mitochondrial δPKC levels (Western blot) in hearts of streptozotocin-treated rats; conditions: hearts 6 weeks after STZ injection (50 mg/kg)
myocardial ATP levels = assay: Myocardial ATP levels in hearts of streptozotocin-treated rats; conditions: hearts 6 weeks after STZ injection (50 mg/kg)

CC[C@H](C)[C@H](NC(=O)[C@H](CCSC)NC(=O)[C@H](CC(N)=O)NC(=O)[C@H](CCCCN)NC(=O)[C@@H](NC(=O)[C@H](CCCCN)NC(=O)[C@H](CCC(=O)O)NC(=O)[C@H](CC(C)C)NC(=O)[C@H](CCC(N)=O)NC(=O)[C@H](CCCCN)NC(=O)[C@H](CCC(=O)O)NC(=O)[C@H](Cc1ccc(O)cc1)NC(=O)[C@H](CCC(=O)O)NC(=O)[C@H](CCCNC(=N)N)NC(=O)[C@@H](NC(=O)[C@@H](N)CCCNC(=N)N)C(C)C)[C@@H](C)CC)C(=O)O [SEQ ID NO: 2, RVREYEKQLEKIKNMI] (H-RVREYEKQLEKIKNMI-OH; N-terminus and C-terminus assumed)
IC50 (δPKC binding to dF1Fo): ~300 µM

CCCCCCCCCCCCCC(=O)O[C@@H]1[C@@H](C)[C@@]2(O)[C@@H](C=C(CO)C[C@]3(O)C(=O)C(C)=C[C@@H]23)[C@@H]2C(C)(C)[C@]12OC(C)=O [4-β PMA, 4-β phorbol 12-myristate-13-acetate]
increase of δPKC-dF1Fo co-IP above 3 nM 4-β PMA-induced levels (δPKC-dF1Fo co-IP): 3.4±0.3 fold

YGRKKRRQRRR-MLATRALSLIGKRAISTSVC-RVRE YEKQLEKIKNMI-DYKDDDDK (YGRKKRRQRRRMLATRALSLIGKRAISTSVCRVREYEKQLEKIKNMIDYKDDDDK; sequence of mitochondrial-targeted facilitator of dPKC-dF1Fo interaction) [PKC-dF1Fo agonist peptide]
enhancement of infarction [1]: 27±3%

CN(N=O)C(=O)N[C@H]1C(O)O[C@H](CO)[C@@H](O)[C@@H]1O (mixture of isomers) [STZ, streptozotocin]
increase in mitochondrial δPKC levels [2]: greater than 10 fold | decrease of myocardial ATP levels (myocardial ATP levels): 2.3±0.1 fold

CC[C@H](C)[C@H](NC(=O)[C@@H](NC(=O)[C@H](CCCCN)NC(=O)[C@H](CC(C)C)NC(=O)[C@H](C)NC(=O)[C@H](CC(C)C)NC(=O)[C@H](CCCCN)NC(=O)[C@H](CCCNC(=N)N)NC(=O)CNC(=O)[C@H](C)N)[C@@H](C)O)C(=O)N[C@@H](CC(=O)O)C(=O)N[C@@H](Cc1c[nH]c2ccccc12)C(=O)N[C@H](C(=O)N[C@@H](CO)C(=O)N[C@@H](Cc1ccccc1)C(=O)O)C(C)C [SEQ ID NO: 1, AGRKLALKTIDWVSF] (H-AGRKLALKTIDWVSF-OH; N-terminus and C-terminus assumed)
IC50 (δPKC binding to dF1Fo): ~300 µM
